This experiment has as its target RET kinase (Homo sapiens, UniProt P07949). Briefly: time resolved FRET-based competition binding assay (RET HTRF). (Time-resolved FRET reads energy transfer from a long-lived donor to a nearby acceptor.)

The IC50 is the concentration needed to halve the response being measured. High values mean lower potency, low ones higher potency.

Sequence of RET kinase (P07949 29-1114): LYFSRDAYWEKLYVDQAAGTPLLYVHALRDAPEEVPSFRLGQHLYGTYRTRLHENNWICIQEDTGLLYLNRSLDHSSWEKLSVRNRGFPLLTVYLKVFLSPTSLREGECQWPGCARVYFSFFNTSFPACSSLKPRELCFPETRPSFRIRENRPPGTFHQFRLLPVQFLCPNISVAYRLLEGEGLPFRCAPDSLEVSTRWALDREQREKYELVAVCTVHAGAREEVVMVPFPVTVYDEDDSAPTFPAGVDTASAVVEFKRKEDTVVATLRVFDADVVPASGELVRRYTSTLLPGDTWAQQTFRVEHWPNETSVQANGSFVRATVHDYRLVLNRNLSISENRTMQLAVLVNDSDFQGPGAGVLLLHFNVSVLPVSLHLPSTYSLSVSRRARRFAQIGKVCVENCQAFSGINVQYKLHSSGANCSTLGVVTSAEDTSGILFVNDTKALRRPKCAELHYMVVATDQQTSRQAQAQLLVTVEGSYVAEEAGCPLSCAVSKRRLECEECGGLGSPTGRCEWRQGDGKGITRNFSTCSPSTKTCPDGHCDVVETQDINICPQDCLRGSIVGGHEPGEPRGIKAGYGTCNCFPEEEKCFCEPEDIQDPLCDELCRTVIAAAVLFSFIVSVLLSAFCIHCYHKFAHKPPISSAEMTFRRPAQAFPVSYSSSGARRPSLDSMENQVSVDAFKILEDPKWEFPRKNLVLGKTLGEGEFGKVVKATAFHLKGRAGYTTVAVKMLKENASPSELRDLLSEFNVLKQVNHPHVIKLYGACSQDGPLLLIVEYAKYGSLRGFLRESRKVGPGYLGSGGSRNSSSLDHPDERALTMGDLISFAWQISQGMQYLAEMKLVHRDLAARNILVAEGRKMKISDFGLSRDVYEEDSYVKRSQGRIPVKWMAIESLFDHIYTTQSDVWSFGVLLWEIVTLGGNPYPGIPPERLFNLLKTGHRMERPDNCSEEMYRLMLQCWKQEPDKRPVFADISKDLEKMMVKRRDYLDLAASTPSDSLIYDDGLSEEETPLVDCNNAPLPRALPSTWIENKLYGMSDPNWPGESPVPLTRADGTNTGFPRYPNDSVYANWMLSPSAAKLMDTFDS
Procedure: Cellular RET Binding Assay A time resolved FRET-based competition binding assay was used to assess compound binding to RET kinase (Thermo Fisher, PR7355A). […] Two (2) L of the reaction solution was dispensed into wells of a 1536 plate (Black Low Binding Polystyrene 1536 Plate, Corning, 3724) containing 10 nL of compounds of interest serially diluted in DMSO. The plate was incubated at room temperature for 1 h. FRET was measured using an EnVision plate reader (Excitation: 340 nm, Emission: 520 nm/495 nM). Total signal (0% inhibition) was calculated from wells containing 10 nL DMSO only.

Regarding `COCc1ccc(NC(=O)c2c(-c3ccc(C=O)cc3)c(C(C)C)n3ncnc(N)c23)cc1` [Example 10, 4-amino-6-(4-formylphenyl)-7-isopropyl-N-(4-(methoxymethyl)phenyl)pyrrolo[2,1-f][1,2,4]triazine-5-carboxamide], the IC50 came out at 37 nM.

The values are drawn from patent US20260159521A1, “RET-LDD PROTEIN INHIBITORS” (Bristol-Myers Squibb Company, priority 2022, published 2026).
